Source: patent US20260365698A1, “STAPLED PEPTIDES FOR SENSITIZATION OF CANCER TO TREATMENT” (Purdue Research Foundation, priority 2022, published 2026)
Bridge positions count the residues as written; N and C are the ends. Square brackets hold non-standard residues; d marks the D form. Ends that are not written are not given here. Peptide text beside a SMILES is read from it. S5 = C=CCCC[C@](C)(N)C(=O)O

How the values were obtained:
[1] = system: Neh1 domain of NRF2; conditions: cited from earlier work
[2] = system: MAFG-NRF2 protein complex; conditions: cited from earlier work
[3] = system: non-small cell lung cancer (NSCLC) cells; conditions: cited from earlier work
[4] = system: proteinase K; test: Proteinase K peptide stability assay; conditions: 10 μg/mL proteinase K
Method: Data are from three independent replicates with standard error indicated. Scale bar indicates 50 μm.
Peptide stability assays were performed using the protocols described in Cromm et al., Protease-resistant and cell-permeable double-stapled peptides targeting the Rab8a GTPase, ACS Chemical Biology 11(8): 2375-2382 (2016). Briefly, 55 μM of peptide was incubated with 10 μg/mL proteinase K for the indicated timepoints. At the end of each time point, 50 μL of the reaction mixture were quenched in 100 μL of a 1:1 mixture acetonitrile/water+1% formic acid (FA). Samples were injected and analyzed on a Triple quad. Analysis was done using an Agilent Technologies 1200 Series attached to an Agilent Technologies 6460 Triple Quad LC/MS. Analysis was performed with a ZORBAX XDB-C18 […], 2.1×50 mm column (Agilent Technologies, Inc., Santa Clara, CA). Eluent A: H2O with 0.1% FA. Eluent B: MeCN with 0.1% FA. Purity analysis utilized the gradient as follows: (A:B, 0.3 mL/min): 95:5, 0 minutes; 95:5, 1 minute; 5:95, 5 minutes; 5:95, 8 minutes: 95:5, 8.5 minutes; 95:5, 12.5 minutes.

[5] = system: A549 cells; test: Confocal microscopy of FITC-labeled peptides, cell permeability; assay type: cell-based; conditions: FITC-labeled peptide, 100 μM, 90 minutes, A549 cells
Method: To determine whether this was a result of poor cell permeability by compounds N2S and N3S, fluorophore labeled versions of these peptides were generated, and confocal microscopy was used to determine the abilities of these peptides to enter cells (FIG. 5C).
Briefly, A549 cells at 9.5×10^4 cells/ml in 600 μl media were plated on 10 mm glass-bottomed, 24-well plates (Chemglass Life Sciences Cell Culture Plate, 24-Well, Fisher Scientific, Waltham, MA) and cultured for overnight at 37 °C, 5% CO2, in complete growth medium (RPMI supplemented with 10% fetal calf serum, L-glutamine, and non-essential amino acids). The next day, cells were treated with fresh, pre-warmed complete growth medium supplemented with the desired FITC-labeled peptide or DMSO vehicle control at a final concentration of 100 μM FITC labeled peptide and 1% DMSO. After 90 minutes of treatment, cells were washed three times in warm PBS to remove excess peptide from the cell surface and left in modified Krebs-Ringer buffer solution [KRBH: 134 mM NaCl. 3.5 mM KCl. 1.2 mM KH2PO4, 0.5 mM MgSO4, 1.5 mM CaCl2), 5 mM NaHCO3, 10 mM HEPES (pH 7.4)] containing Hoechst stain at 1 μg/ml. Cells were immediately analyzed under a Nikon A1 confocal microscope (Resonant). The images were taken at 20× magnification with fluorescence excitation wavelengths at 409 for the Hoechst and 488 for the FITC. Images were processed using NIS-Elements AR. Dietrich et al., Cell permeable stapled peptide inhibitor of Wnt signaling that targets 0-catenin protein-protein interactions, Cell Chemical Biology 24(8): 958-968.e5 (2017); Dougherty et al., Enhancing the cell-permeability of stapled peptides with a cyclic cell-penetrating peptide, J Medicinal Chemistry 62(22): 10098 (2019).

[6] = biological target: T1, His-MafG; test: SPR, pH 7.5
T1 chain: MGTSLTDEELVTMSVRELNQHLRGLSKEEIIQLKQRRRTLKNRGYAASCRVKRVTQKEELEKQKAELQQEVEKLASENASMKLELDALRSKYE

In the case of `Cc1ccccc1C(=O)N1CCc2cc(-c3nc(NC(=O)Cc4ccc5c(c4)OCO5)sc3C)ccc21` [ML-385], the “binding to the Neh1 domain of NRF2” value [1] is listed as “binds to the Neh1 domain of NRF2”, the “binding of MAFG-NRF2 complex to regulatory DNA and downstream target gene expression” value [2] is listed as “inhibiting downstream target gene expression” and the “cytotoxicity in combination with platinum-based drugs, doxorubicin or taxol” value [3] is listed as “substantially enhances cytotoxicity”.

With `CC(=O)N[C@@H](CC(=O)O)C(=O)N[C@@H](CC(C)C)C(=O)N[C@@H](CC(=O)O)C(=O)N[C@@H](Cc1c[nH]cn1)C(=O)N[C@@H](CC(C)C)C(=O)N[C@@]1(C)CCCC=CCCC[C@@](C)(C(=O)N[C@@H](CCCCN)C(=O)N[C@@H](CC(C)C)C(=O)N[C@@H](CC(C)C)C(=O)N[C@@H](CCCCN)C(=O)N[C@@H](CCC(=O)O)C(=O)N[C@@H](CCCCN)C(N)=O)NC(=O)[C@H](CCCCN)NC(=O)[C@H](CCC(=O)O)NC(=O)[C@H](CC(=O)O)NC1=O` [N2S] (Ac-DLDHL[S5]DEK[S5]KLLKEK-NH2; staple 6-10) the “time at which significant degradation starts” value ([4]; 55 μM peptide) was 40 min and the “cellular and nuclear permeability” value [5] was “good”.

In the case of `CC(=O)N[C@@H](CC(=O)O)C(=O)N[C@@H](CCC(=O)O)C(=O)N[C@@H](CCCCN)C(=O)N[C@@H](CCC(=O)O)C(=O)N[C@@H](CCCCN)C(=O)N[C@@H](CC(C)C)C(=O)N[C@@]1(C)CCCC=CCCC[C@@](C)(C(=O)N[C@@H](CCC(=O)O)C(=O)N[C@@H](CC(N)=O)C(=O)N[C@@H](CC(=O)O)C(=O)N[C@@H](CCCCN)C(=O)N[C@@H](CO)C(N)=O)NC(=O)[C@H](CCCCN)NC(=O)[C@H](CCC(=O)O)NC(=O)[C@H](CCCCN)NC1=O` [N3S] (Ac-DEKEKL[S5]KEK[S5]ENDKS-NH2; staple 7-11), the “degradation by proteinase K” value ([4]; for up to 24 hours, 55 μM peptide) is reported as “no significant degradation”, the “accumulation in the nucleus” value [5] is reported as “very little to no accumulation” and the cellular permeability [5] is reported as “minimal”.

For Ac-DEKEKLLKEKGENDKS-NH2 [N3], the “degradation of unstapled peptide at shortest timepoint” value ([4]; 30 minutes) was “completely degraded”.

In the case of Ac-IVELEQDLDHLKDEKE-NH2 [N1], the cellular permeability [5] is reported as “poor”.

B1: N1S (biotin-labeled) (peptide)
chain: IVELE[S5]DLD[S5]LKDEKE
modifications: staple 6-10; also: biotin-labeled
With B1 the Kd [6] was 337 nM.
